Laboratory results published in PubChem BioAssay (NCI).
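Assay format: 96-well plates, 48-hour exposure. The concentration for full growth arrest is given as TGI.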

Columns and labels:
Assay in all cases: NCI tumour cell line growth inhibition, 48 h
HOP-62 NSCLC = system: HOP-62 NSCLC
HT29 colon = system: HT29 colon
SK-MEL-5 melanoma = system: SK-MEL-5 melanoma
OVCAR-5 ovarian = system: OVCAR-5 ovarian
A549 NSCLC = system: A549 NSCLC
HCT-15 colon = system: HCT-15 colon
NCI-H226 lung = system: NCI-H226 lung
LOX IMVI melanoma = system: LOX IMVI melanoma
ACHN renal = system: ACHN renal
NCI-H522 lung = system: NCI-H522 lung
SF-539 CNS = system: SF-539 CNS
HCC-2998 colon = system: HCC-2998 colon
SNB-19 CNS = system: SNB-19 CNS
KM12 colon = system: KM12 colon
MOLT-4 leukemia = system: MOLT-4 leukemia
SNB-75 CNS = system: SNB-75 CNS
SK-MEL-2 melanoma = system: SK-MEL-2 melanoma
PC-3 prostate = system: PC-3 prostate
MALME-3M melanoma = system: MALME-3M melanoma
A498 renal = system: A498 renal
CCRF-CEM leukemia = system: CCRF-CEM leukemia
SN12C renal = system: SN12C renal
NCI-H23 lung = system: NCI-H23 lung
MDA-N = system: MDA-N
MCF7 breast = system: MCF7 breast
OVCAR-3 ovarian = system: OVCAR-3 ovarian
M14 melanoma = system: M14 melanoma
COLO 205 colon = system: COLO 205 colon
SW-620 colon = system: SW-620 colon
HL-60(TB) leukemia = system: HL-60(TB) leukemia
SR leukemia = system: SR leukemia
NCI-H460 lung = system: NCI-H460 lung
UACC-62 melanoma = system: UACC-62 melanoma
K-562 leukemia = system: K-562 leukemia
BT-549 breast = system: BT-549 breast
RXF 393 renal = system: RXF 393 renal
OVCAR-8 ovarian = system: OVCAR-8 ovarian
HCT-116 colon = system: HCT-116 colon
SF-268 CNS = system: SF-268 CNS
SK-MEL-28 melanoma = system: SK-MEL-28 melanoma
786-0 renal = system: 786-0 renal
TK-10 renal = system: TK-10 renal
UACC-257 melanoma = system: UACC-257 melanoma
RPMI-8226 leukemia = system: RPMI-8226 leukemia
SK-OV-3 ovarian = system: SK-OV-3 ovarian
NCI/ADR-RES ovarian = system: NCI/ADR-RES ovarian
EKVX NSCLC = system: EKVX NSCLC
MDA-MB-435 = system: MDA-MB-435
OVCAR-4 ovarian = system: OVCAR-4 ovarian
MDA-MB-231 breast = system: MDA-MB-231 breast
DU-145 prostate = system: DU-145 prostate
SF-295 CNS = system: SF-295 CNS
T-47D breast = system: T-47D breast
UO-31 renal = system: UO-31 renal
HOP-92 NSCLC = system: HOP-92 NSCLC
IGROV1 ovarian = system: IGROV1 ovarian
CAKI-1 renal = system: CAKI-1 renal
U251 CNS = system: U251 CNS
HS 578T breast = system: HS 578T breast

Compound N#Cc1cnc(N)nc1NCC1(CO)CC(CCc2ccccc2)C1 (stereo not drawn) has a TGI (HOP-62 NSCLC) greater than 100 µM, a TGI (HT29 colon) greater than 100 µM and a TGI (SK-MEL-5 melanoma) greater than 100 µM. The TGI (OVCAR-5 ovarian) was greater than 100 µM, the TGI (A549 NSCLC) was greater than 100 µM and the TGI (HCT-15 colon) was greater than 100 µM. It also gave a TGI (NCI-H226 lung) greater than 100 µM, a TGI (LOX IMVI melanoma) greater than 100 µM and a TGI (ACHN renal) greater than 100 µM. For the same compound, the TGI (NCI-H522 lung) was greater than 100 µM, the TGI (SF-539 CNS) was greater than 100 µM and the TGI (HCC-2998 colon) was greater than 100 µM. For the same compound, the TGI (SNB-19 CNS) was greater than 100 µM, the TGI (KM12 colon) was greater than 100 µM and the TGI (MOLT-4 leukemia) was greater than 100 µM. For the same compound, the TGI (SNB-75 CNS) was greater than 83.1 µM, the TGI (SK-MEL-2 melanoma) was greater than 100 µM and the TGI (PC-3 prostate) was greater than 100 µM. The TGI (MALME-3M melanoma) was greater than 100 µM, the TGI (A498 renal) was greater than 100 µM and the TGI (CCRF-CEM leukemia) was greater than 100 µM. For the same compound, the TGI (SN12C renal) was greater than 100 µM, the TGI (NCI-H23 lung) was greater than 100 µM and the TGI (MDA-N) was greater than 100 µM. For the same compound, the TGI (MCF7 breast) was greater than 100 µM, the TGI (OVCAR-3 ovarian) was greater than 100 µM and the TGI (M14 melanoma) was greater than 100 µM. For the same compound, the TGI (COLO 205 colon) was greater than 100 µM, the TGI (SW-620 colon) was greater than 100 µM and the TGI (HL-60(TB) leukemia) was greater than 100 µM. The TGI (SR leukemia) was greater than 100 µM, the TGI (NCI-H460 lung) was greater than 100 µM and the TGI (UACC-62 melanoma) was greater than 100 µM. It also gave a TGI (K-562 leukemia) greater than 100 µM, a TGI (BT-549 breast) greater than 100 µM and a TGI (RXF 393 renal) greater than 100 µM. It also gave a TGI (OVCAR-8 ovarian) greater than 100 µM, a TGI (HCT-116 colon) greater than 100 µM and a TGI (SF-268 CNS) greater than 100 µM. The TGI (SK-MEL-28 melanoma) was greater than 100 µM, the TGI (786-0 renal) was greater than 100 µM and the TGI (TK-10 renal) was greater than 100 µM. The TGI (UACC-257 melanoma) was greater than 100 µM, the TGI (RPMI-8226 leukemia) was greater than 100 µM and the TGI (SK-OV-3 ovarian) was greater than 100 µM. It also gave a TGI (NCI/ADR-RES ovarian) greater than 100 µM, a TGI (EKVX NSCLC) greater than 100 µM and a TGI (MDA-MB-435) greater than 100 µM. The TGI (OVCAR-4 ovarian) was greater than 100 µM, the TGI (MDA-MB-231 breast) was greater than 100 µM and the TGI (DU-145 prostate) was greater than 100 µM. For the same compound, the TGI (SF-295 CNS) was greater than 100 µM, the TGI (T-47D breast) was greater than 20.5 µM and the TGI (UO-31 renal) was greater than 100 µM. It also gave a TGI (HOP-92 NSCLC) greater than 100 µM, a TGI (IGROV1 ovarian) greater than 100 µM and a TGI (CAKI-1 renal) greater than 100 µM. It also gave a TGI (U251 CNS) greater than 100 µM and a TGI (HS 578T breast) greater than 100 µM.
With CCOC(=O)C(SCCO)C(C(=O)OCC)n1ccc(=O)[nH]c1=O (stereo not drawn) the TGI (HOP-62 NSCLC) was greater than 96.6 µM, the TGI (HT29 colon) was 83.3 µM and the TGI (SK-MEL-5 melanoma) was greater than 100 µM. The TGI (OVCAR-5 ovarian) was 47.6 µM, the TGI (A549 NSCLC) was greater than 100 µM and the TGI (HCT-15 colon) was greater than 57.5 µM. For the same compound, the TGI (NCI-H226 lung) was greater than 61.2 µM, the TGI (LOX IMVI melanoma) was greater than 43.8 µM and the TGI (ACHN renal) was greater than 66.6 µM. The TGI (NCI-H522 lung) was 22.7 µM, the TGI (SF-539 CNS) was greater than 71.6 µM and the TGI (HCC-2998 colon) was greater than 100 µM. For the same compound, the TGI (SNB-19 CNS) was greater than 100 µM, the TGI (KM12 colon) was greater than 87.4 µM and the TGI (MOLT-4 leukemia) was 21.7 µM. It also gave a TGI (SNB-75 CNS) greater than 95.9 µM, a TGI (SK-MEL-2 melanoma) greater than 79.8 µM and a TGI (PC-3 prostate) greater than 100 µM. The TGI (MALME-3M melanoma) was 32.9 µM, the TGI (A498 renal) was greater than 100 µM and the TGI (CCRF-CEM leukemia) was 10.5 µM. It also gave a TGI (SN12C renal) greater than 100 µM, a TGI (NCI-H23 lung) greater than 100 µM and a TGI (MDA-N) of 97.8 µM. For the same compound, the TGI (MCF7 breast) was greater than 62.1 µM, the TGI (OVCAR-3 ovarian) was 72.7 µM and the TGI (M14 melanoma) was greater than 90.5 µM. For the same compound, the TGI (COLO 205 colon) was greater than 59.3 µM, the TGI (SW-620 colon) was 46.8 µM and the TGI (HL-60(TB) leukemia) was 12 µM. It also gave a TGI (SR leukemia) of 34 µM, a TGI (NCI-H460 lung) greater than 100 µM and a TGI (UACC-62 melanoma) of 67.3 µM. The TGI (K-562 leukemia) was 36.1 µM, the TGI (BT-549 breast) was greater than 100 µM and the TGI (RXF 393 renal) was 81.4 µM. For the same compound, the TGI (OVCAR-8 ovarian) was greater than 57.4 µM, the TGI (HCT-116 colon) was greater than 57.4 µM and the TGI (SF-268 CNS) was greater than 100 µM. It also gave a TGI (SK-MEL-28 melanoma) greater than 86.7 µM, a TGI (786-0 renal) greater than 50.6 µM and a TGI (TK-10 renal) greater than 100 µM. The TGI (UACC-257 melanoma) was greater than 100 µM, the TGI (RPMI-8226 leukemia) was 47.8 µM and the TGI (SK-OV-3 ovarian) was greater than 100 µM. The TGI (NCI/ADR-RES ovarian) was greater than 69.4 µM, the TGI (EKVX NSCLC) was greater than 100 µM and the TGI (MDA-MB-435) was greater than 58.5 µM. For the same compound, the TGI (OVCAR-4 ovarian) was greater than 86.5 µM, the TGI (MDA-MB-231 breast) was greater than 82.2 µM and the TGI (DU-145 prostate) was greater than 100 µM. The TGI (SF-295 CNS) was greater than 100 µM, the TGI (T-47D breast) was greater than 100 µM and the TGI (UO-31 renal) was greater than 100 µM. It also gave a TGI (HOP-92 NSCLC) of 69.1 µM, a TGI (IGROV1 ovarian) greater than 95 µM and a TGI (CAKI-1 renal) of 39.5 µM. It also gave a TGI (U251 CNS) of 82.9 µM and a TGI (HS 578T breast) greater than 100 µM.
